The conditions of data set [1]: cited from earlier work.
The procedure of data set [2]:
The samples were prepared using USP grade aspirin, which was dried at 110° before use. […] Spectrum b was taken after the sample (containing 10% water) was stored at 70° C. for 96 hours.

Data set [3] in a line: Solubility of aspirin in propylene glycol, polyethylene glycol-400 and dimethyl isosorbide. The note with it: organic solvent or mixture. The class given is physicochemical. As to the method:
The bottle was constantly shaken at room temperature for 24 hours. The solution was then filtered for analysis. The determination of aspirin contents in the solubility samples was carried out using a fluorometric technique, in which the aspirin was completely hydrolyzed into salicylic acid, and the fluorescence of salicylic acid was then measured. The concentration of salicylic acid in the samples was determined based on a fluorescence calibration curve of known concentrations of salicylic acid in the range of 5×10^-7 M to 5×10^-6 M. The concentration of salicylic acid so determined was then converted to the concentration of aspirin. The solubility of aspirin in various solvents is expressed in mg/ml. The samples were treated as follows: […] After 30 minutes, when the hydrolysis was complete, 0.5 ml of a 1 N HCl was added to the flask to neutralize the excess sodium hydroxide. The solution was then diluted with a pH 7 phosphate buffer to 25 ml. For fluorescence measurement, 1, 2, 3, and 4 μl of the diluted solution were transferred into different fluorescence cuvettes containing 2 ml of pH 7 buffer. The fluorescence measured from these solutions was then used to determine the aspirin content in the solvents.

The format of data set [4] is physicochemical. The note with it: dimethyl isosorbide versus propylene glycol and polyethylene glycol-400. The source says:
Ideally, an anhydrous composition is used to prevent hydrolysis.

Data set [5] in a line: Hydrolysis (stability) studies of aspirin formulations in dimethyl isosorbide. The class given is physicochemical. As to the method:
No attempt of drying of the drug or the solvent was made prior to the experiment. 25 ml of each of the six formulations were placed in a screw capped bottle which was then kept in a temperature controlled water bath set at a designated temperature. Samples of each of the formulations were pipetted out at selected time intervals, and were immediately analyzed for salicylic acid content. The analysis of salicylic acid was carried out using the fluorometric method previously described. The samples were diluted 1000 times in a volumetric flask, a few μl's of the diluted samples were then transferred into a fluorescence cuvette containing 2 ml of pH 7 buffer for the fluorescence measurement. The hydrolysis studies were carried out at 40, 45, 50, 60 and 70° C. and at room temperature.
The rate constant of aspirin hydrolysis was determined according to the following equation: […]
where Co is the initial concentration of aspirin, C, the concentration of aspirin at time t, and k, the rate constant. For practical purposes, the above equation may be converted to […]

For the next data set, the system named is gastrointestinal tract. The conditions noted are these: cited from earlier work.
Data set [6] is described as follows: Arrhenius prediction of aspirin degradation and shelf life. It counts as physicochemical. The note with it: 1.00 M aspirin in dimethyl isosorbide. The method, then:
The rate constants determined at various temperatures were used to predict the aspirin degradation at room (25° C.) and refrigeration (5° C.) temperatures using the Arrhenius equation:
log k=log A-Ea /2.303RT (3)
where k is the rate constant at temperature T,A, a constant, R, the gas constant, and Ea, the activation energy of the reaction. A plot of log k versus 1/T should yield a straight line with the slope equal to -Ea /2.303R. For the same reaction, Ea is a constant. From the plot, the rate constants at 25° and 5° can also be calculated. These constants can then be used for the prediction of the shelf life (time for 10% degradation) of the aspirin formulations at room and refrigeration temperatures.
From these values, the shelf-life (time for 10% degradation) of formulation A were predicted to be 230 days at 25° C., and 62.5 months at 5° C.

The conditions of data set [7]: cited from earlier work. The source holds these as a separate data set.

Converted amounts (≈) assume the structure as drawn. Read-outs that look alike come from different tables or passages of the source.

On to `CC(=O)Oc1ccccc1C(=O)O` [Aspirin, acetylsalicylic acid], for which the “Time for 10% Degradation” value in data set [1] (5° C., 0.36 M aspirin in polyethylene glycol-400) is reported as 2.90 mos; in data set [1] (5° C., 0.36 M aspirin in propylene glycol), 55.8 mos; in data set [1] (25° C., 0.36 M aspirin in polyethylene glycol-400) it was 18.8 days; in data set [1] (25° C., 0.36 M aspirin in propylene glycol), 151.2 days; in data set [6] (5° C.), 62.5 mos; in data set [6] (25° C.), 230 days. Also, the “aspirin degradation by nmr” value in data set [2] (1 M aspirin in dimethyl isosorbide with 10% (v/v) water, 70° C., 96 hours) is “partially hydrolyzed into salicylic acid and acetic acid”. Besides, the nmr spectral change entry in data set [2] (1 M aspirin in dimethyl isosorbide, no water, heated at 70° for 24 hours) is listed as “no detectable change was found in the nmr spectrum”. For the same compound, the solubility at 24 h in data set [3] (dimethyl isosorbide) amounted to 280 mg/mL (≈ 1550 mM); in data set [3] (in polyethylene glycol-400, room temperature, 24 hours), 254 mg/mL (≈ 1410 mM); in data set [3] (in propylene glycol, room temperature, 24 hours) it was 160 mg/mL (≈ 888 mM). Besides, the “aspirin stability compared between solvents” value in data set [4] is reported as “more stable in dimethyl isosorbide than in the other solvents”. In addition, the “cause of aspirin degradation (nmr)” value in data set [5] is on record as “hydrolysis is the only cause for aspirin degradation in dimethyl isosorbide”. In addition, in data set [5] (50° C., FIG. 3), the “kinetic order of aspirin hydrolysis” value is “follows second order kinetics”. For the same compound, the gastrointestinal bleeding entry with gastrointestinal tract (aspirin ingestion, users and patients with gastrointestinal lesions) is listed as “severe gastrointestinal bleeding”. Further, the occult bleeding result with gastrointestinal tract (orally in a liquid form or intravenously) is “produces no occult bleeding”. Moreover, the “mode of decomposition in polyhydric alcohols (nmr)” value in data set [7] (apparently anhydrous polyhydric alcohols) was “occurs by transesterification of the acid with the polyhydric alcohol as well as by hydrolysis due to the presence of water”. In data set [7] (aqueous, Edward), the hydrolysis kinetics result is “follows first order kinetics and is subject to acid and base catalysis”. The trans-esterification entry in data set [7] (polyethylene glycol-400, prolonged storage, Jun et al) was “undergoes trans-esterification with polyethylene glycol-400 to form salicylic acid and acetylated polyethylene glycol”.

One may read the solubility as the concentration that dissolves in the medium under given conditions.
